# In article PMC4481117 (Molecular Pain, 2015):
# Key:
# [1] = tested on: Mac-1 (Mac-1-HEK293 cells); assay: Inhibition of adhesion of Mac-1-HEK293 cells to fibrinogen by soluble peptides; format: cell-based, Human; settings: soluble peptide 50 μM, 10 min at 22 °C; 2.5 μg/mL fibrinogen coating, 30 min at 37 °C; mean ± S.E., three experiments
# Protocol: Fig. 4 Effect of soluble Dyn A on Mac-1-mediated cell adhesion to fibrinogen. a (left ordinate), calcein-labeled Mac-1-HEK293 cells were preincubated with different concentrations of dynorphin A (black bar), dynorphin B (open bar) or control peptide (gray bar) for […] at 22 °C and added to the wells of microtiter plates coated with 2.5 μg/mL fibrinogen. Cells were allowed to adhere for 30 minutes at 37 °C before removing nonadherent cells. […] Data are expressed as a percentage of total cell fluorescence
# Adhesion assays were performed essentially as described previously. […] Cells were labeled with 10 μM calcein for 30 min at 37 °C and washed twice with Hanks’ Balanced salt solution (HBSS) containing 0.1 % BSA. Aliquots (100 μl) of labeled cells (5x10^5/ml) were added to each well and allowed to adhere for 30 min at 37 °C. The non-adherent cells were removed by two washes with PBS. Fluorescence was measured in a CytoFluorII fluorescence plate reader (Perceptive Biosystems, Framingham, MA). In inhibition experiments, cells were mixed with different concentrations of peptides, NIF or mAbs for 20 min at 22 °C before they were added to the wells coated with adhesive substrates. […] After aspirating the solution, labeled cells were added and cell adhesion was analyzed as above.
# [2] = tested on: Mac-1-HEK293 cells; assay: Transwell migration of Mac-1-HEK293 cells to Dyn A; format: cell-based, Human; settings: 16 h at 37 °C
# Protocol: (§1) Fig. 6 Migration of Mac-1-expressing cells to Dyn A in a Transwell system. a, Mac-1-expressing HEK 293 cells (100 μl at 3 × 10^6 cell/ml) were added to the upper wells of the transwell chamber and their ability to migrate to different concentrations of Dyn A placed in the lower chamber was analyzed. After 16 hours at 37 °C, migrated cells were fixed, stained, and counted. Data are presented as numbers of migrated cells per field ± S.E. for five random fields per well. The figure is representative of 5 experiments. b, Mac-1-expressing or wild-type HEK 293 cells were added to the upper wells of the transwell chamber and their ability to migrate to 10 μM Dyn A placed in the lower chamber was analyzed as in A. Some Mac-1-HEK293 cells were pretreated with 20 μg/ml of mAbs 44a (anti-αM), IB4 (anti-β2) or OKM1 (non function-blocking anti-αM) or medium alone before addition to the upper wells. ***, medium alone. Data are presented as the number of migrated cells per field ± S.E. for five random fields/well from 3 separate experiments. **, p < 0.01. c, migration of TG-elicited macrophages isolated from the peritoneum of wild-type and Mac-1-deficient mice. Macrophages (3x10^5) were placed in the upper chamber and allowed to migrate to Dyn A (10 μM) in the lower chamber for 90 min. The number of migrated cells was determined as in A. Data are presented as number of migrated cells per field ± S.E. for five random fields per well. The figure is representative of 3 experiments
# (§2) Migration assays with wild-type and Mac-1-expressing HEK293 cells and purified macrophages using Transwell inserts (5 μm pore size) were performed as previously described. […] The photographs were taken using a 20x objective and cells in […] and cells were counted. […]
# [3] = tested on: Mac-1-deficient macrophages; assay: Transwell migration of Mac-1-deficient peritoneal macrophages to Dyn A; format: cell-based, mouse; settings: 10 μM Dyn A, 90 min at 37 °C, TG-elicited
# Protocol: as §1, with “Data are presented as the number of migrated cells per field ± S.E. for five random fields/well from 3 separate experiments. **, p < 0.01. c, migration of TG-elicited macrophages isolated from the peritoneum of wild-type and Mac-1-deficient mice. Macrophages (3x10^5) were placed in the upper chamber and allowed to migrate to Dyn A (10 μM) in the lower chamber for 90 min.” left out, “The figure is representative of 3 experiments” left out
# as §2
smiles,measurement,setting,value
CC[C@H](C)[C@H](NC(=O)[C@H](CCCNC(=N)N)NC(=O)[C@H](CCCNC(=N)N)NC(=O)[C@H](CC(C)C)NC(=O)[C@H](Cc1ccccc1)NC(=O)CNC(=O)CNC(=O)[C@@H](N)Cc1ccc(O)cc1)C(=O)N[C@@H](CCCNC(=N)N)C(=O)N1CCC[C@H]1C(=O)N[C@@H](CCCCN)C(=O)N[C@@H](CC(C)C)C(=O)N[C@@H](CCCCN)C(=O)N[C@@H](Cc1c[nH]c2ccccc12)C(=O)N[C@@H](CC(=O)O)C(=O)N[C@@H](CC(N)=O)C(=O)N[C@@H](CCC(N)=O)C(=O)O [Dyn A],Inhibition of adhesion to fibrinogen,[1],67 ± 2%
same,Concentration at which migratory response reaches saturation,[2]; Transwell 5 μm,5 µM
same,Lowest concentration inducing migration,[2]; Transwell 5 μm,0.5 to 1 µM
same,Migration of Mac-1-HEK293 cells (in words),[2]; Transwell,strong concentration-dependent migratory response
same,Migration of Mac-1-deficient macrophages (in words),[3],significantly impaired
